Where “and” joins values, the source holds several entries; their conditions need not be identical. Identical values can stand only once. Like-named read-outs stand apart in the source and are kept apart here.
Tests used:
[1] = Patient-reported side effects of nilotinib (questionnaire, 5-point Likert scale); assay type: in vivo, CP-CML patients
Description: At study entry, patients completed a self-administered composite questionnaire including demographic characteristics (date of birth, gender, education, living status, and working status), use of St. John’s wort, use of grapefruit (juice), quality of life (Short Form-12 Health Survey [SF-12]), side effects, and beliefs about medication in general (Beliefs about Medicines Questionnaire [BMQ]-General) and specifically about nilotinib (BMQ-Specific). The questionnaire at 3, 6, and 12 months also included the MARS-5 and questions on nilotinib intake in relation to food intake, use of tools to prevent forgetting, illness perception (Brief Illness Perception Questionnaire [Brief IPQ]), and information satisfaction (Satisfaction with Information about Medicines Scale [SIMS])[51, 52]. Education was assessed as the highest level completed, and dichotomized into higher education (higher general secondary education or above) and lower education. Living status was categorized as living alone or not living alone, and work status as having paid work or not. Questions on side effects were based on literature data and concerned specific nilotinib toxicities occurring in > 10% of patients (headache, nausea, rash, itching, myalgia, fatigue). Answers were scored on a 5-point Likert scale (0 = not at all to 4 = very much). Symptoms scored as “3 = a lot” or “4 = very much” were considered “severe.”

[2] = test system: BCR-ABL transcript level; assay: Molecular response (MMR, BCR-ABL transcript level ≤ 0.1% IS) to nilotinib treatment; assay type: in vivo, CP-CML patients
Method: The response was considered optimal when a MMR was achieved within 12 months of nilotinib treatment. MMR was defined as a BCR-ABL transcript level of ≤ 0.1% on the International Scale. For patients already on treatment at entry, the time until MMR was obtained retrospectively from their medical files.
Comparison of adherence (continuous) and Cmin values (either grouped into quartiles [Q1 vs. Q2–Q4] or based on a previously reported threshold concentration of 490 μg/L) among response groups (time to MMR after start of nilotinib treatment ≤ 12 months vs. > 12 months, stratified by line of treatment) was performed using Mann-Whitney tests and Fisher’s exact tests. Time to MMR was assessed using the Kaplan Meier method with logrank test. In these outcome analyses, the mean of each measure of adherence and Cmin values was used. For all analyses, a two-tailed significance level of 0.05 was used. p values below this level were considered statistically significant. All statistical analyses were performed using SPSS version 22 for Windows (IBM Corp, Armonk, NY, USA).

[3] = test system: BCR-ABL transcript level; parameters: method as in PMID 26837842; conditions: 5-year update of the ENESTnd trial, first-line; cited from earlier work
[4] = Nilotinib trough plasma concentration (Cmin) from dried blood spot self-sampling; assay type: in vivo, CP-CML patients
Method: Blood sampling was performed by the patient at home by means of a validated dried blood spot (DBS) sampling method. Using the DBS, nilotinib plasma concentrations were calculated as previously reported. Patients were instructed to sample blood at predose at baseline (if already on nilotinib treatment), 3, 6, and 12 months from study entry. The time of blood sampling, time of last nilotinib intake, and body weight were recorded in patient diaries. Cmin samples were defined as those taken between 8 and 16 h after the prior dose.
Individual measures of exposure were obtained using averaged Cmin values for individual patients based on the measurements obtained at baseline, 3, 6, and 12 months. Intra-patient variability in nilotinib Cmin was analyzed in patients who had ≥ 2 analyzed samples available and expressed as the average coefficient of variation (CV%). Missing Cmin values were imputed with the mean of the observed Cmin values for the corresponding dose. Univariable linear regression was used to identify variables (one by one) related to nilotinib Cmin. GEE was used to identify whether the occurrence of side effects was related to observed nilotinib Cmin values (without imputation) obtained at baseline, 3, 6, and 12 months.

[5] = Nilotinib treatment discontinuation during the 12-month study period; assay type: in vivo, CP-CML patients; conditions: of 68 patients
Description: In this multicenter prospective observational study, conducted between August 2013 and April 2017 in six Dutch hospitals, CP-CML patients using nilotinib were followed for 12 months. Initially, it was the aim only to include newly diagnosed CP-CML patients starting nilotinib treatment. […] The study was registered in the Netherlands Trial Register (NTR3992) and the protocol has been published previously.
Information on disease characteristics, medical history, co-medication, and nilotinib treatment was obtained from the patient’s medical file and pharmacy dispensing record.

[6] = second/third-line nilotinib treatment
[7] = 42 patients with ≥ 2 analyzed samples

For `Cc1cn(-c2cc(NC(=O)c3ccc(C)c(Nc4nccc(-c5cccnc5)n4)c3)cc(C(F)(F)F)c2)cn1` [nilotinib], the “Fatigue, % of patients experiencing (any severity)” value [1] was “About 75%”, the “Itching, % of patients reporting (any severity)” value [1] was 59% and the “Myalgia, % of patients reporting (any severity)” value [1] was 54%. The “Rash, % of patients reporting (any severity)” value [1] was 43%, the “Fatigue, % mild” value ([1]; mild = a little bit/rather) was 54.9% and the “Headache, % mild” value ([1]; mild = a little bit/rather) was 35.8%. For the same compound, the “Itching, % mild” value ([1]; mild = a little bit/rather) was 51.9%, the “Myalgia, % mild” value ([1]; mild = a little bit/rather) was 48.1% and the “Nausea, % mild” value ([1]; mild = a little bit/rather) was 20.4%. The “Rash, % mild” value ([1]; mild = a little bit/rather) was 35.2%, the “Fatigue, % severe” value ([1]; severe = a lot/very much) was 20% and 19.6% and the “Headache, % severe” value ([1]; severe = a lot/very much) was 1.9%. For the same compound, the “Itching, % severe” value ([1]; severe = a lot/very much) was 7.4%, the “Myalgia, % severe” value ([1]; severe = a lot/very much) was 6% and 5.8% and the “Nausea, % severe” value ([1]; severe = a lot/very much) was 1.9%. The “Rash, % severe” value ([1]; severe = a lot/very much) was 7.4%, the “1-year MMR rate according to nilotinib Cmin” value (shortened to “1-year MMR rate according”) ([2]; All patients, Cmin quartile Q1 (< 635 μg/L)) was 56% (5/9) and the “1-year MMR rate according” value ([2]; All patients, Cmin quartile Q2 (Q2–Q3 635–< 1346 μg/L)) was 88% (7/8). The “1-year MMR rate according” value ([2]; All patients, Cmin quartile Q3 (Q2–Q3 635–< 1346 μg/L)) was 75% (12/16), the “1-year MMR rate according” value ([2]; All patients, Cmin quartile Q4 (≥ 1346 μg/L)) was 30% (3/10) and the “median time to MMR12” value ([2]; Cmin quartile Q1, n = 5) was 6.4 months. For the same compound, the “median time to MMR12” value ([2]; Cmin quartile Q2, n = 7) was 6.7 months, the “median time to MMR12” value ([2]; Cmin quartile Q3, n = 12) was 4.3 months and the “median time to MMR12” value ([2]; Cmin quartile Q4, n = 3) was 2.8 months. For the same compound, the “1-year MMR rate according” value ([2]; Subpopulation 1A/1B (1st line treatment), Q1 (< 635 μg/L)) was 71% (5/7), the “1-year MMR rate according” value ([2]; Subpopulation 1A/1B (1st line treatment), Q2) was 100% (5/5) and the “1-year MMR rate according” value ([2]; Subpopulation 1A/1B (1st line treatment), Q3) was 73% (8/11). The “1-year MMR rate according” value ([2]; Subpopulation 1A/1B (1st line treatment), Q4 (≥ 1346 μg/L)) was 40% (2/5), the “1-year MMR rate according” value ([2]; Subpopulation 2A/2B (≥ 2nd line treatment), Q1 (< 635 μg/L)) was 0% (0/2) and the “1-year MMR rate according” value ([2]; Subpopulation 2A/2B (≥ 2nd line treatment), Q3) was 80% (4/5). The “1-year MMR rate according” value ([2]; Subpopulation 2A/2B (≥ 2nd line treatment), Q4 (≥ 1346 μg/L)) was 20% (1/5), the “mean time to MMR12” value ([2]; first-line nilotinib treatment) was 5.9 ± 3.2 months and the “median time to MMR12” value ([2]; first-line nilotinib treatment) was 6.1 months. The “time to MMR12, range” value ([2]; first-line nilotinib treatment) was 1.2–12.9 months, the “1-year MMR rate” value ([2]; first-line nilotinib treatment (subpopulations 1A/1B), 20/28) was 71% and the “overall 1-year MMR rate” value ([2]; range over lines of treatment) was 47 to 71%. The “mean time to MMR12” value [2, 6] was 5.8 ± 4.4 months, the “median time to MMR12” value [2, 6] was 3.7 months and the “time to MMR12, range” value [2, 6] was 2.6–12.4 months. For the same compound, the “1-year MMR rate” value ([2]; second/third-line nilotinib treatment (subpopulations 2A/2B), 7/15) was 47%, the “1-year MMR rate” value [3] was 55% and the “Observed nilotinib Cmin, mean ± SD” value ([4]; 150 mg BID (n = 15 samples)) was 835 ± 412 µg/L. The “Observed nilotinib Cmin, median (IQR)” value ([4]; 150 mg BID (n = 15 samples)) was 656 (548–1042) μg/L, the “Observed nilotinib Cmin, range” value ([4]; 150 mg BID (n = 15 samples)) was 390 to 1793 µg/L and the “Observed nilotinib Cmin, mean ± SD” value ([4]; 300 mg BID (n = 85 samples)) was 1021 ± 472 µg/L. For the same compound, the “Observed nilotinib Cmin, median (IQR)” value ([4]; 300 mg BID (n = 85 samples)) was 954 (654–1274) μg/L, the “Observed nilotinib Cmin, range” value ([4]; 300 mg BID (n = 85 samples)) was 196 to 2413 µg/L and the “Observed nilotinib Cmin, mean ± SD” value ([4]; 300 mg QD (n = 6 samples)) was 567 ± 110 µg/L. For the same compound, the “Observed nilotinib Cmin, median (IQR)” value ([4]; 300 mg QD (n = 6 samples)) was 589 (450–658) μg/L, the “Observed nilotinib Cmin, range” value ([4]; 300 mg QD (n = 6 samples)) was 418 to 702 µg/L and the “Observed nilotinib Cmin, mean ± SD” value ([4]; 400 mg BID (n = 25 samples)) was 1497 ± 597 µg/L. For the same compound, the “Observed nilotinib Cmin, median (IQR)” value ([4]; 400 mg BID (n = 25 samples)) was 1253 (1054–2053) μg/L, the “Observed nilotinib Cmin, range” value ([4]; 400 mg BID (n = 25 samples)) was 342 to 2540 µg/L and the “Observed nilotinib Cmin, mean ± SD” value ([4]; 400 mg QD (n = 6 samples)) was 536 ± 57 µg/L. For the same compound, the “Observed nilotinib Cmin, median (IQR)” value ([4]; 400 mg QD (n = 6 samples)) was 552 (517–570) μg/L, the “Observed nilotinib Cmin, range” value ([4]; 400 mg QD (n = 6 samples)) was 422 to 574 µg/L and the “intra-patient variability, %CV in Cmin (mean ± SD)” value [4, 7] was 25 ± 19%. The “intra-patient variability, %CV in Cmin, median” value [4, 7] was 20%, the “intra-patient variability, %CV in Cmin, range” value [4, 7] was 1–91% and the “patients with nilotinib Cmin generally above the therapeutic target” value ([4]; in vivo) was 95%. For the same compound, the “range of Cmin values below the threshold concentration of 490 μg/L” value ([4]; nine patients) was 196 to 467 µg/L, the “patients with a Cmin below the threshold concentration of 490 μg/L at any time” value ([4]; nine patients of 56) was 16% and the “Cmin median (IQR)” value ([4]; patients reporting Fatigue: Mild (n = 72)) was 974 (644–1373) μg/L. For the same compound, the “Cmin median (IQR)” value ([4]; patients reporting Fatigue: None (n = 32)) was 777 (561–1087) μg/L, the “Cmin median (IQR)” value ([4]; patients reporting Fatigue: Severe (n = 25), p any .007, severe .023) was 1160 (787–1468) μg/L and the “Cmin median (IQR)” value ([4]; patients reporting Headache: Mild (n = 40)) was 905 (625–1254) μg/L. The “Cmin median (IQR)” value ([4]; patients reporting Headache: None (n = 91)) was 970 (618–1288) μg/L, the “Cmin median (IQR)” value ([4]; patients reporting Headache: Severe (n = 1)) was 2413 µg/L and the “Cmin median (IQR)” value ([4]; patients reporting Itching: Mild (n = 61)) was 923 (740–1243) μg/L. The “Cmin median (IQR)” value ([4]; patients reporting Itching: None (n = 61)) was 954 (565–1283) μg/L, the “Cmin median (IQR)” value ([4]; patients reporting Itching: Severe (n = 11), p severe .012) was 1260 (1021–1800) μg/L and the “Cmin median (IQR)” value ([4]; patients reporting Myalgia: Mild (n = 62)) was 1031 (765–1380) μg/L. The “Cmin median (IQR)” value ([4]; patients reporting Myalgia: None (n = 56)) was 857 (574–1219) μg/L, the “Cmin median (IQR)” value ([4]; patients reporting Myalgia: Severe (n = 12)) was 840 (658–1553) μg/L and the “Cmin median (IQR)” value ([4]; patients reporting Nausea: Mild (n = 27)) was 1210 (750–1798) μg/L. The “Cmin median (IQR)” value ([4]; patients reporting Nausea: None (n = 104)) was 945 (615–1249) μg/L, the “Cmin median (IQR)” value ([4]; patients reporting Nausea: Severe (n = 1)) was 648 µg/L and the “Cmin median (IQR)” value ([4]; patients reporting Rash: None (n = 75)) was 964 (598–1338) μg/L. For the same compound, the “Cmin median (IQR)” value ([4]; patients reporting Rash: Severe (n = 12)) was 1157 (764–1540) μg/L, the “number of patients who discontinued nilotinib treatment due to progression” value [5] was 4 and the “number of patients who discontinued nilotinib treatment due to side effects” value [5] was 6.

Source: PMC7419465, “Response and Adherence to Nilotinib in Daily practice (RAND study): an in-depth observational study of chronic myeloid leukemia patients treated with nilotinib” (European Journal of Clinical Pharmacology, 2020)
